Data published in paper PMC12494831, “Discovery of new pyridine 3-carboxylic acid-based pharmacophores as dual anti-inflammatory and anti-hyperglycemic agents” (Scientific Reports, 2025).

Columns and labels:
[1] = ABTS cation radical scavenging (734 nm); settings: for IC50: read-out: ABTS IC50±SD
Procedure: (§1) The experimental method principle relies on the degradation of the purple color of the DPPH radical and the blue color reduction of the ABTS cation radical. This is due to consuming the electron or hydrogen radical from the antioxidant (A-H). Both assays were measured at 517 nm and 734 nm, respectively. The distinction of color changes illustrates the potential scavenging activity of the inhibitor molecules in terms of hydrogen-donating proficiency. From this, we can conclude the anti-oxidant efficacy.
In brief, 7.0 mM ABTS in H2O and 2.5 mM potassium persulfate (1:1) were shaken well to generate ABTS cation radicals and kept in the dark at RT for 15–20 h before it is used for the experiment. After, the radical was mixed with the synthesized molecules at different concentrations (20 µM to 100 µM). The resultant solution was measured for absorbance at 734 nm. Ascorbic acid is the positive control for this experiment.1 [drawing 1]

[2] = DPPH radical scavenging (517 nm); settings: for IC50: read-out: DPPH IC50±SD
Procedure: as §1
Methanolic DPPH solution (0.15 mM) was prepared, and 1.0 mL of DPPH solution was mixed with 3.0 mL of synthesized molecules at different concentrations (20 µM to 100 µM). The mixture was constantly swirled and stored RT for 30 min, followed by absorbance measurement at 517 nm.

[3] = system: human RBC; experiment: Anti-inflammatory activity: hypotonic solution-induced human RBC hemolysis (560 nm); format: cell-based; settings: for IC50: induced human RBC hemolysis, read-out: Inflammatory IC50±SD
Procedure: All synthesized compounds are validated in human RBC (blood sample); the blood sample was collected from a healthy volunteer in an EDTA tube. The EDTA tube further proceeded with centrifugation at 3000 rpm for 30 min. A supernatant (which contains plasma and leucocytes) solution was isolated, and the obtained RBC (red blood cells) was further treated with Alsever’s reagent. Alsever’s reagent was prepared as follows: sodium citrate (0.8 g, 2.6 mmol), dextrose (2 g, 11.0 mmol), citric acid (0.050 g, […]), and sodium chloride (0.42 g, 7.0 mmol) were solubilized in 100 mL of distilled water. The above mixture was centrifuged for 30 min at 3000 rpm. Then, colloidal blood cells were separated, carefully transferred, and washed with 0.85% of the isosaline solution; this process continued until a clear solution appeared. Employing coagulated RBC and generated human erythrocyte hemolysis, the anti-inflammatory activity and potential of the synthesized entities were evaluated. The tested compounds are prepared at different concentrations for the inhibition activity of inflammation, along with 100 µL of a purified RBC sample utilized. All characterized samples were followed by adding 5.0 mL of trisodium phosphate (10 mM) and 5.0 mL of sodium chloride (5.0 mM) buffer solutions. After the addition of the above mixtures, the test samples are incubated for 15 min at room temperature with RBC and hypotonic mixtures. After incubation, the mixture was centrifuged at 3000 rpm for 15 min. The final supernatant liquid solution was measured at 560 nm using a UV-visible spectrophotometer.3 [drawing 3]

[4] = target: T1, α-amylase (EC.3.2.1.1) (Homo sapiens, UniProt P04746); experiment: In vitro α-amylase inhibition (starch/DNS, 540 nm); format: biochemical; settings: for IC50: test concentrations 2-10 µg, read-out: α-Amylase IC50±SD (converted)
T1 sequence (P04746 16-511): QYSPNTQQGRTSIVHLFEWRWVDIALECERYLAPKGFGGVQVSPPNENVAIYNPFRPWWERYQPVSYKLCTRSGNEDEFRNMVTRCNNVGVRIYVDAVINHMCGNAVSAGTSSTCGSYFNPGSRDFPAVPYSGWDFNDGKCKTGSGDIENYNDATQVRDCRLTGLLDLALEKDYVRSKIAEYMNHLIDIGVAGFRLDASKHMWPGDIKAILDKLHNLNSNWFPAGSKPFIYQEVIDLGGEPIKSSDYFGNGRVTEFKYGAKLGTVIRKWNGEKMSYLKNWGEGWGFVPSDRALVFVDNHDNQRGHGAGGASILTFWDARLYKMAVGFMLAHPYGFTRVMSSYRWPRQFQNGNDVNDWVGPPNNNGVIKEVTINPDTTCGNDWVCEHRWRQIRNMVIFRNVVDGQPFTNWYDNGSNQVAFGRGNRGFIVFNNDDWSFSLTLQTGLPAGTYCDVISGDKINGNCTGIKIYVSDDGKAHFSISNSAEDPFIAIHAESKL
Procedure: α-Amylase enzyme and other chemical reagents are used for enzyme inhibitory activity. The characterized compounds are diluted in an analytical grad solvent (DMSO) system at 1 mg/mL solution concentration. The activity reaction of the synthesized analogues on the enzyme was treated at final concentrations of 2 to 10 µg. In the interaction between enzyme and compounds, 10 min incubation was maintained before the inhibitory activity started. The enzyme-receptor inhibition efficiency was calculated and compared with the positive control.
Sodium phosphate buffer 0.2 mM (pH 6.9 with 6 × 10^− 4 M NaCl) in 500 µL enzyme solution (0.5 mg/mL) was taken and incubated with test samples (2–10 µg/mL) at room temperature for 10 min. A starch (1%) solution of 500 µL with phosphate buffer was added to all test inhibitor samples; further, the tubes were incubated for 10 min at 28 °C. The reaction test tubes were incubated for another 5 min in the water bath (100 °C) after the addition of the color reagent dinitro salicylic acid and cooled at room temperature until reached. Finally, 10 mL of distilled water was mixed with each test tube, and the colored mixture was measured at a fixed wavelength of 540 nm. The absorbance without sample solution (blank) and control (buffer and standard drug sample) was measured at 540 nm. The α-amylase inhibition efficiency was validated using the following equation:2 [drawing 2]

Structure (SMILES) | ABTS Inhibition % ([1]; 20 µM) [%] | ABTS Inhibition % ([1]; 40 µM) [%] | ABTS Inhibition % ([1]; 60 µM) [%] | ABTS Inhibition % ([1]; 80 µM) [%] | ABTS Inhibition % ([1]; 100 µM) [%] | IC50 [1] [µM] | DPPH Inhibition % ([2]; 20 µM) [%] | DPPH Inhibition % ([2]; 40 µM) [%] | DPPH Inhibition % ([2]; 60 µM) [%] | DPPH Inhibition % ([2]; 80 µM) [%] | DPPH Inhibition % ([2]; 100 µM) [%] | IC50 [2] [µM] | inhibition at 20 µM [3] [%] | inhibition at 40 µM [3] [%] | inhibition at 60 µM [3] [%] | inhibition at 80 µM [3] [%] | inhibition at 100 µM [3] [%] | IC50 [3] [µM] | α-Amylase Inhibition % ([4]; 2 µg) [%] | α-Amylase Inhibition % ([4]; 4 µg) [%] | also measured
O=C(Oc1ccc2c(c1)OCO2)c1cccnc1 [Compound 2h, Benzo[1,3]dioxol-5-yl nicotinate] | 69 | 71 | 72 | 72.9 | 76.7 | 16.4 ± 0.25 | 84.5 | 85.8 | 86.8 | 87.2 | 87.68 | 12.9 ± 0.19 | 52 | 63 | 64.7 | 65 | 70 | 21.7 ± 0.24 | 74.08 | 73.2 | α-Amylase Inhibition % ([4]; 6 µg): 72.47%; α-Amylase Inhibition % ([4]; 8 µg): 70.57%; α-Amylase Inhibition % ([4]; 10 µg): 70.13%; IC50 [4]: 6.23 µM
COc1cc(C(C)=O)ccc1OC(=O)c1cccnc1 [Compound 2i, 4-Acetyl-2-methoxyphenyl nicotinate] | 41.6 | 44.7 | 49.5 | 53.9 | 60.4 | 38.43 ± 0.21 | 8.89 | 33.34 | 40.65 | 49.83 | 52.22 | 99.62 ± 0.15 | 17.6 | 25.3 | 47 | 58 | 70 | 66.97 ± 0.28 | 77.74 | 76.42 | α-Amylase Inhibition % ([4]; 6 µg): 74.67%; α-Amylase Inhibition % ([4]; 8 µg): 71.01%; α-Amylase Inhibition % ([4]; 10 µg): 70.86%; IC50 [4]: 5.25 µM
O=C(c1ccccc1)c1ccc2n1CCC2C(=O)O (centres unmarked) [Ketorolac, reference compound] | – | – | – | – | – | – | – | – | – | – | – | – | 91 | 92 | 93 | 93.5 | 94 | 11.8 ± 0.17 | – | – | –
O=C1O[C@H]([C@@H](O)CO)C(O)=C1O [Ascorbic acid, reference compound] | 90 | 93 | 95 | 96 | 96.5 | 11.9 ± 0.01 | 91 | 91.8 | 93.7 | 94.3 | 96.1 | 11.81 ± 0.04 | – | – | – | – | – | – | – | – | –
COC(=O)C=Cc1cc(OC)c(OC(=O)c2cccnc2)c(OC)c1 [Compound 2d, 2,6-dimethoxy-4-(3-methoxy-3-oxoprop-1-en-1-yl)phenyl nicotinate] | 56.9 | 59.6 | 62.5 | 62.6 | 63.2 | 21.57 ± 0.11 | 36.2 | 56.3 | 80.5 | 87.4 | 88.3 | 32.02 ± 0.26 | 59 | 62 | 65.4 | 75.2 | 84.4 | 20.2 ± 0.26 | – | – | –
C[C@H]1O[C@H](O[C@H]2[C@H](O)[C@@H](O)[C@@H](O[C@H]3[C@H](O)[C@@H](O)C(O)O[C@@H]3CO)O[C@@H]2CO)[C@H](O)[C@@H](O)[C@@H]1N[C@H]1C=C(CO)[C@@H](O)[C@H](O)[C@H]1O (some centres unmarked) [Acarbose, reference compound] | – | – | – | – | – | – | – | – | – | – | – | – | – | – | – | – | – | – | 85.59 | 83.98 | α-Amylase Inhibition % ([4]; 6 µg): 82.19%; α-Amylase Inhibition % ([4]; 8 µg): 80.97%; α-Amylase Inhibition % ([4]; 10 µg): 80.38%
